Test results reported in ChEMBL document CHEMBL1145401, “Design and synthesis of classical and nonclassical 6-arylthio-2,4-diamino-5-ethylpyrrolo[2,3-d]pyrimidines as antifolates” (J Med Chem, 2007).

Key:
CCRF-CEM [1] = test: Cytotoxicity against CCRF-CEM cells; type: functional; settings: Homo sapiens
K562 = test: Cytotoxicity against K562 cells; type: functional; settings: Homo sapiens
MOLT-4 = test: Cytotoxicity against MOLT4 cells; type: functional; settings: Homo sapiens
RPMI-8226 = test: Cytotoxicity against RPMI8226 cells; type: functional; settings: Homo sapiens
SR = test: Cytotoxicity against SR cells; type: functional; settings: Homo sapiens
NCI-H460 = test: Cytotoxicity against NCI-H460 cells; type: functional; settings: Homo sapiens
HT-29 = test: Cytotoxicity against HT29 cells; type: functional; settings: Homo sapiens
SW-620 = test: Cytotoxicity against SW620 cells; type: functional; settings: Homo sapiens
U-251 = test: Cytotoxicity against U251 cells; type: functional; settings: Homo sapiens
LOX IMVI = test: Cytotoxicity against LOX IMVI cells; type: functional; settings: Homo sapiens
PC-3 = test: Cytotoxicity against PC3 cells; type: functional; settings: Homo sapiens
Dihydrofolate reductase [2] = target: T1, Dihydrofolate reductase (Homo sapiens, UniProt P00374)
Dihydrofolate reductase [3] = target: T2, Dihydrofolate reductase (Pneumocystis carinii, UniProt P16184)
T2 sequence (P16184 whole entry): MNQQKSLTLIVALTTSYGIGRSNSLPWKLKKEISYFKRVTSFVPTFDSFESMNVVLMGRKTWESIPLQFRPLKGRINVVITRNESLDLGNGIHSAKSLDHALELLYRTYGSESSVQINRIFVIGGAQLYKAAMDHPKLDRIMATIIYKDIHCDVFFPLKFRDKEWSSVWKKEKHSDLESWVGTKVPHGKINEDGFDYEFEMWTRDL
Description: Inhibition of Pneumocystis carinii DHFR

Dihydrofolate reductase [4] = target: T3, Dihydrofolate reductase (Mycobacterium avium, UniProt O30463)
T3 sequence (O30463 whole entry): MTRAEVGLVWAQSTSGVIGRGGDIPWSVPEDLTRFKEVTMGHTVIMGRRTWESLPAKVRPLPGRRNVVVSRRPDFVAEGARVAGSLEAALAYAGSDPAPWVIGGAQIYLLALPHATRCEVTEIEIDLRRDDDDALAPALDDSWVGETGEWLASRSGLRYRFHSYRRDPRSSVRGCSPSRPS
Description: Inhibition of Mycobacterium avium DHFR

Dihydrofolate reductase [5] = target: T4, Dihydrofolate reductase (Rattus norvegicus, UniProt Q920D2)
T4 sequence (Q920D2 whole entry): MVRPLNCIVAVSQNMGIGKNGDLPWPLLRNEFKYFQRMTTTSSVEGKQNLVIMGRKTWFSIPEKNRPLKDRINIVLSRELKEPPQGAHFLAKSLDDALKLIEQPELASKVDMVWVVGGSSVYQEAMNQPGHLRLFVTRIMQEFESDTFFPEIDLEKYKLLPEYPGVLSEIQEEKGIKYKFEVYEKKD
Description: Inhibition of rat liver DHFR

Dihydrofolate reductase [6] = target: T1, Dihydrofolate reductase; test: Inhibition of human DHFR relative to control; settings: concentration not given here
[7] = Selectivity ratio of IC50 for rat liver DHFR to IC50 for Pneumocystis carinii DHFR
[8] = Selectivity ratio of IC50 for rat liver DHFR to IC50 for Mycobacterium avium DHFR
[9] = target: T5, Bifunctional dihydrofolate reductase-thymidylate synthase (Toxoplasma gondii, UniProt Q07422)
T5 sequence (Q07422 whole entry): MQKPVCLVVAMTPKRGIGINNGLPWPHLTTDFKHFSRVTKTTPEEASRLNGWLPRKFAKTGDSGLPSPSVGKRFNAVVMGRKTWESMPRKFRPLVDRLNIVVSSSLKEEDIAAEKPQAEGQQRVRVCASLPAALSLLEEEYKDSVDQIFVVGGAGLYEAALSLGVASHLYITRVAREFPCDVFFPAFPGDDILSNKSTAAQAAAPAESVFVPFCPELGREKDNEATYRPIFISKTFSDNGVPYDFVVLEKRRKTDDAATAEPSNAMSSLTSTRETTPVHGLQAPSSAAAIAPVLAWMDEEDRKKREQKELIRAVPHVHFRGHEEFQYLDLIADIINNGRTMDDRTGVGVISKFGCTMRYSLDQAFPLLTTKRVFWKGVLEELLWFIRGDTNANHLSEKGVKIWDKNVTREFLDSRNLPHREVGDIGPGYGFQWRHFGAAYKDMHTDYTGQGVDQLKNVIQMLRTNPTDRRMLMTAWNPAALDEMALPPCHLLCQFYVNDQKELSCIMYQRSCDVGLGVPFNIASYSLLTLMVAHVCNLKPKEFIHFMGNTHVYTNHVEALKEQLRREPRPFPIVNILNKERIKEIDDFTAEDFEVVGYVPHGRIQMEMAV
Description: Inhibition of Toxoplasma gondii DHFR

[10] = Inhibition of Escherichia coli DHFR
[11] = Selectivity ratio of IC50 for human DHFR to IC50 for Escherichia coli DHFR
CCRF-CEM [12] = test: Effect on growth of human CCRF-CEM cells at 40 nM in presence of 10 uM deoxycytidine relative to control; type: functional
CCRF-CEM [13] = test: Effect on growth of human CCRF-CEM cells at 40 nM in presence of 10 uM deoxycytidine, 5 uM thymidine relative to control; type: functional
CCRF-CEM [14] = test: Effect on growth of human CCRF-CEM cells at 40 nM in presence of 10 uM deoxycytidine, 10 uM hypoxanthine relative to control; type: functional
CCRF-CEM [15] = test: Effect on growth of human CCRF-CEM cells at 40 nM in presence of 10 uM deoxycytidine, 5 uM thymidine and 10 uM hypoxanthine relative to control; type: functional

Cc1nc(N)c2c(C)c(Sc3ccc(C(=O)N[C@@H](CCC(=O)O)C(=O)O)cc3)[nH]c2n1
GI50 (CCRF-CEM [1]): 220 nM | GI50 (K562): 27 nM | GI50 (MOLT-4): < 10 nM | GI50 (RPMI-8226): < 10 nM | GI50 (SR): > 100 nM | GI50 (NCI-H460): 630 nM | GI50 (HT-29): 160 nM | GI50 (SW-620): 120 nM | GI50 (U-251): 820 nM | GI50 (LOX IMVI): 170 nM | GI50 (PC-3): 440 nM

CCc1c(Sc2cccc3cccnc23)[nH]c2nc(N)nc(N)c12
IC50 (Dihydrofolate reductase [2]): 1400 nM | IC50 (Dihydrofolate reductase [3]): 9580 nM | IC50 (Dihydrofolate reductase [4]): 110 nM | IC50 (Dihydrofolate reductase [5]): 3550 nM

CCc1c(Sc2ccc(Cl)cc2)[nH]c2nc(N)nc(N)c12
inhibition (Dihydrofolate reductase [6]): 36% | Ratio IC50 [7]: 0.5 | Ratio IC50 [8]: 7.8 | IC50 (Dihydrofolate reductase [2]): > 31000 nM | IC50 (Dihydrofolate reductase [3]): 11900 nM | IC50 [9]: 1540 nM | IC50 (Dihydrofolate reductase [4]): 700 nM | IC50 (Dihydrofolate reductase [5]): 5480 nM

CCc1c(Sc2cccc(OC)c2)[nH]c2nc(N)nc(N)c12
inhibition (Dihydrofolate reductase [6]): 35% | IC50 [10]: 320 nM | Ratio IC50 [11]: > 100 | Ratio IC50 [7]: 1.1 | Ratio IC50 [8]: 40.5 | IC50 (Dihydrofolate reductase [2]): > 32000 nM | IC50 (Dihydrofolate reductase [3]): 28300 nM | IC50 [9]: 1090 nM | IC50 (Dihydrofolate reductase [4]): 770 nM | IC50 (Dihydrofolate reductase [5]): 31000 nM

CCc1c(Sc2ccc(Cl)cc2Cl)[nH]c2nc(N)nc(N)c12
IC50 [10]: 140 nM | Ratio IC50 [11]: 10 | Ratio IC50 [7]: 0.2 | Ratio IC50 [8]: 3.3 | IC50 (Dihydrofolate reductase [2]): 1400 nM | IC50 (Dihydrofolate reductase [3]): 7190 nM | IC50 [9]: 220 nM | IC50 (Dihydrofolate reductase [4]): 350 nM | IC50 (Dihydrofolate reductase [5]): 1170 nM

CCc1c(Sc2cc(OC)ccc2OC)[nH]c2nc(N)nc(N)c12
IC50 (Dihydrofolate reductase [2]): 5800 nM | IC50 [9]: 120 nM

CCc1c(Sc2c(C)cccc2C)[nH]c2nc(N)nc(N)c12
IC50 (Dihydrofolate reductase [3]): 30200 nM | IC50 [9]: 7100 nM | IC50 (Dihydrofolate reductase [4]): 18400 nM | IC50 (Dihydrofolate reductase [5]): 10100 nM

CN(Cc1cnc2nc(N)nc(N)c2n1)c1ccc(C(=O)N[C@@H](CCC(=O)O)C(=O)O)cc1 [METHOTREXATE]
Activity (CCRF-CEM [12]): 11% | Activity (CCRF-CEM [13]): 13% | Activity (CCRF-CEM [14]): 14% | Activity (CCRF-CEM [15]): 74%

CCc1c(Sc2cccc(Cl)c2)[nH]c2nc(N)nc(N)c12
inhibition (Dihydrofolate reductase [6]): 30% | IC50 [10]: 160 nM | Ratio IC50 [11]: > 194 | Ratio IC50 [7]: 1.6 | Ratio IC50 [8]: 15.1 | IC50 (Dihydrofolate reductase [2]): > 31000 nM | IC50 (Dihydrofolate reductase [3]): 4020 nM | IC50 [9]: 500 nM | IC50 (Dihydrofolate reductase [4]): 420 nM | IC50 (Dihydrofolate reductase [5]): 6330 nM

CCc1c(Sc2c(Cl)cccc2Cl)[nH]c2nc(N)nc(N)c12
inhibition (Dihydrofolate reductase [6]): 30% | Ratio IC50 [7]: 0.2 | Ratio IC50 [8]: 0.33 | IC50 (Dihydrofolate reductase [2]): > 28000 nM | IC50 (Dihydrofolate reductase [3]): 20600 nM | IC50 [9]: 3800 nM | IC50 (Dihydrofolate reductase [4]): 12000 nM | IC50 (Dihydrofolate reductase [5]): 4000 nM
